pKd: −log10 of the molar value. Positions of bridges follow the written chain, without caps; N, C: chain ends. Residues, ends and D or L forms follow the SMILES beside them.
Columns and labels:
[1] = Bioavailability study in mice, serum detection by LCMS; type: in vivo; conditions: FIG. 10b
Protocol: A similar bioavailability study was performed in which LCMS rather than ELISA was used to detect SEQ ID NO:3. Initially, serum samples were extracted from the whole blood of exposed and control mice, then injected directly ([…]) onto an in-line solid phase extraction (SPE) column (Waters Oasis HLB […] column, 2.0×15 mm direct connect) without further processing. The sample on the SPE column was washed with a 5% methanol, 95% dH2O solution (2.1 mL/min, 1.0 minute), then loaded onto an analytical column using a valve switch that places the SPE column in an inverted flow path onto the analytical column (Waters Xterra MS C8 5 mm IS column, 2.1×20 mm). The sample was eluted from the analytical column with a reverse phase gradient (Mobile Phase A: 10 mM ammonium hydroxide in dH2O, Mobile Phase B: 10 mM ammonium hydroxide in 80% acetonitrile and 20% methanol; 20% B for the first 3 minutes then ramping to 95% B over 4 min. and holding for 2 min., all at a flow rate of 0.4 mL/min.). At 9.1 minutes, the gradient returns to the initial conditions of 20% B for 1 min. SEQ ID NO:3 eluted from the analytical column at 1.45 minutes, and was detected by triple-quadrapole mass spectrometry (MRM, 764 (+2 charge state)>182 (+1 charge state) Da; cone voltage=30V; collision=20 eV; parent resolution=2 Da at base peak; daughter resolution=2 Da at base peak). […]

[2] = biological target: T1, GC-C receptors found in rat intestinal mucosa (Rattus norvegicus, UniProt P23897); assay: biochemical
T1 sequence (P23897 23-1072): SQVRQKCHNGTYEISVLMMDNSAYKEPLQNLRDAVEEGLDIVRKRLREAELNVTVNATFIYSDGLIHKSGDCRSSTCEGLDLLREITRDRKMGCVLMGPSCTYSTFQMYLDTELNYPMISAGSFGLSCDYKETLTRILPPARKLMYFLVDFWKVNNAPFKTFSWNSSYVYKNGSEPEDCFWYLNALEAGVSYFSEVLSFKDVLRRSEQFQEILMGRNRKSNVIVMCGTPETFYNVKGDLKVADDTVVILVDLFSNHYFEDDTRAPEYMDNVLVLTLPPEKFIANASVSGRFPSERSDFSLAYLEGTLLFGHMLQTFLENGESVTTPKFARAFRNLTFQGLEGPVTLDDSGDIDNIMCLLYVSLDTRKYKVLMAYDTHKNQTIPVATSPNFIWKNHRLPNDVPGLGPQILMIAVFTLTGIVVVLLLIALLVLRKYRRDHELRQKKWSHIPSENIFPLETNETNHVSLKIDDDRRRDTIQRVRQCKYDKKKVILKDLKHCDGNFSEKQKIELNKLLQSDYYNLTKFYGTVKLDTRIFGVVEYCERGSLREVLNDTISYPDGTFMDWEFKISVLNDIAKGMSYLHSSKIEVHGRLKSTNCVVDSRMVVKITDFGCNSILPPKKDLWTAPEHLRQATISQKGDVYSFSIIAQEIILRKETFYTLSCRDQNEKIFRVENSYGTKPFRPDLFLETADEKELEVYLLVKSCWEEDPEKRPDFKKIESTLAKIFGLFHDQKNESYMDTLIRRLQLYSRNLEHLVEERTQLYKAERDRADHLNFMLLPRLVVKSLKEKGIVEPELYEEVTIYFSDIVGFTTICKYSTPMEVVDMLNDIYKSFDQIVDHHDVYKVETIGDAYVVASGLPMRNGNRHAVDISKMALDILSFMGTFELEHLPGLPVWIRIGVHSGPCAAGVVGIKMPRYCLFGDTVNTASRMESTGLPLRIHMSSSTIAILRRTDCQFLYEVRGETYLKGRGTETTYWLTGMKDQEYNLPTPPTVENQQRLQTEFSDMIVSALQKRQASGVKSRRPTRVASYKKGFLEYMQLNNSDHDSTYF
Protocol: To determine the affinity of SEQ ID NO:3 for GC-C receptors found in rat intestinal mucosa, a competition binding assay was performed using rate intestinal epithelial cells. Epithelial cells from the small intestine of rats were obtained as described by Kessler et al. (J. Biol. Chem. 245: 5281-5288 (1970)). Briefly, animals were sacrificed and their abdominal cavities exposed. The small intestine was rinsed with 300 ml ice cold saline or PBS. 10 cm of the small intestine measured at 10 cm from the pylorus was removed and cut into 1 inch segments. Intestinal mucosa was extruded from the intestine by gentle pressure between a piece of parafilm and a P-1000 pipette tip. Intestinal epithelial cells were placed in 2 ml PBS and pipetted up and down with a 5 ml pipette to make a suspension of cells.
A competition binding assay was performed based on the method of Giannella et al. (Am. J. Physiol. 245: G492-G498) between [^125I] labeled SEQ ID NO:4 and SEQ ID NO:3. The assay mixture contained: 0.5 ml of DME with 20 mM HEPES-KOH pH 7.0, 0.9 mg of the cell suspension listed above, 21.4 fmol [^125I]-SEQ ID NO:4 (42.8 pM), and different concentrations of competitor SEQ ID NO:3 (0.01 to 1000 nM). […] The filters were washed with 5 ml ice-cold PBS and radioactivity was measured.

[3] = Absorbability/bioavailability study in mice, serum detection by competitive ELISA; type: in vivo, CD1 mice; conditions: FIG. 10a
Protocol: To study the pharmacokinetics of SEQ ID NO:3, absorbability studies in mice were performed by administering SEQ ID NO:3 intravaneously via tail vein injection or orally by gavage to 8-week-old CD1 mice. Serum was collected from the animals at various time points and tested for the presence of SEQ ID NO:3 using a competitive enzyme-linked immunoabsorbent assay (Oxoid, ST EIA kit, Cat#TD0700). The assay utilized monoclonal antibodies against ST peptide (antibodies are provided in the Oxoid kit) and synthetically manufactured SEQ ID NO:3.

gastrointestinal transit = assay: Murine gastrointestinal transit (GIT) assay, charcoal front; type: in vivo, mice
Protocol: In order to determine whether the peptides increase the rate of gastrointestinal transit, the peptides and controls were tested using a murine gastrointestinal transit (GIT) assay (Moon et al. Infection and Immunity 25:127, 1979). In this assay, charcoal, which can be readily visualized in the gastrointestinal tract is administered to mice after the administration of a test compound. The distance traveled by the charcoal is measured and expressed as a percentage of the total length of the […].
Mice were fasted with free access to water for 12 to 16 hours before the treatment with peptide or control buffer. The peptides were orally administered at 1 μg/kg-1 mg/kg of peptide in buffer (20 mM Tris pH 7.5) 7 minutes before being given an oral dose of 5% Activated Carbon (Aldrich 242276-250G). Control mice were administered buffer only before being given a dose of Activated Carbon. After 15 minutes, the mice were sacrificed and their intestines from the stomach to the cecum were dissected. The total length of the intestine as well as the distance traveled from the stomach to the charcoal front was measured for each animal and the results are expressed as the percent of the total length of the intestine traveled by the charcoal front. All results are reported as the average of 10 mice±standard deviation. A comparison of the distance traveled by the charcoal between the mice treated with peptide versus the mice treated with vehicle alone was performed using a Student's t test and a statistically significant difference was considered for P<0.05. P-values are calculated using a two-sided T-Test assuming unequal variances.
The identical experiment was performed to determine if SEQ ID NO:3 is effective in a chronic dosing treatment regimen. Briefly, 8 week old CD1 female mice are dosed orally once a day for 5 days with either SEQ ID NO:3 (0.06 mg/kg or 0.25 mg/kg in 20 mM Tris pH 7.5) or vehicle alone (20 mM Tris pH 7.5). On the 5th day, a GIT assay is performed identical to that above except 200 μl of a 10% charcoal solution is administered. […] The results are shown side by side with acute dosing (1 day).

[4] = CD1, mouse, serum, oral versus IV

C[C@@H]1NC(=O)[C@@H]2CCCN2C(=O)[C@H](CC(N)=O)NC(=O)[C@@H]2CSSC[C@H](N)C(=O)N[C@H]3CSSC[C@H](NC1=O)C(=O)N[C@@H]([C@@H](C)O)C(=O)NCC(=O)N[C@H](C(=O)N[C@@H](Cc1ccc(O)cc1)C(=O)O)CSSC[C@H](NC(=O)[C@H](Cc1ccc(O)cc1)NC(=O)[C@H](CCC(=O)O)NC3=O)C(=O)N2 [SEQ ID NO:3, Cys Cys Glu Tyr Cys Cys Asn Pro Ala Cys Thr Gly Cys Tyr] (H-CCEYCCNPACTGCY-OH; disulfide 1-6, 2-10, 5-13; N-terminus and C-terminus assumed)
bioavailability [1, 4]: < 0.11%
systemic absorption ([1]; oral): minimally systemically absorbed
pKd [2]: 8.35
bioavailability [3, 4]: < 2.2%
systemic absorption ([3]; oral): minimally systemically absorbed
gastrointestinal transit rate (gastrointestinal transit; acute, oral, mice, SEQ ID NO:4 and Zelnorm 0.1 mg/kg, FIG. 3a/3b): increase gastrointestinal transit rate
intestinal transit rate versus Tris buffer or equivalent dose of Zelnorm (gastrointestinal transit; acute, oral, mice, chemically synthesized peptides, FIG. 4b): increase intestinal transit rates more than either Tris buffer alone or an equivalent dose of Zelnorm®
effect in mouse gastrointestinal motility assay upon chronic dosing (gastrointestinal transit; oral once a day for 5 days, CD1 female mice, FIG. 4c): effective
